Assay results taken from article PMC9606102, “[^89Zr]Zr-PSMA-617 PET/CT in biochemical recurrence of prostate cancer: first clinical experience from a pilot study including biodistribution and dose estimates” (European Journal of Nuclear Medicine and Molecular Imaging, 2022).

Legend:
[1] = [^89Zr]Zr-PSMA-617 PET/CT biodistribution in normal organs (SUV, tissue-to-background ratio); format: in vivo, human (patients); conditions: for SUVmax: mean ± SD
Experimental: (§1) Each patient underwent PET/CT imaging scans at 4 time points: 1 h, 24 h, 48 h, and 72 h post intravenous injection (p.i.) of 111 ± 11 MBq (mean ± standard deviation, range 97–129 MBq) [^89Zr]Zr-PSMA-617. All PET/CT imaging was performed on a Biograph mCT 40 scanner (Siemens Medical Solutions, Knoxville, TN, USA) comprising whole-body PET/CT scans extending from vertex to mid-femur in 3D mode. PET acquisition time duration was 4 min per bed position on the initial day of injection and extended up to 10 min on the last day. CT data were acquired in low-dose technique using an X-ray tube voltage of […] and a modulation of the tube current (CARE Dose4D, Siemens Erlangen; maximal tube current 30 mA) followed by reconstruction with a soft tissue reconstruction kernel (B31f) to a slice thickness of 5 mm (increment 2–4 mm). PET emission data was corrected for decay, randoms, and scatter. PET image reconstruction was performed applying an iterative 3-dimensional ordered-subset expectation maximization (OSEM) algorithm (3 iterations; 24 subsets) with gaussian filtering to a transaxial resolution of 5 mm at full width half maximum (FWHM). The matrix and the pixel size were 200 × 200 and 3.0 mm, respectively. Attenuation correction was performed using the low-dose CT data.
The biodistribution of [^89Zr]Zr-PSMA-617 was quantified by analyzing the standard uptake values (SUV) SUVmax, SUVpeak and SUVmean at 1 h, 24 h, 48 h, and 72 h p.i.. Considering normal-organs, elliptical volumes of interest (VOI) were manually drawn enclosing regions of relatively homogenous uptake. Activity estimation was performed within the VOI applying a 40% or, in case of faintly accumulating organs, a 20% threshold using the SyngoVia software (Enterprise VB 60, Siemens, Erlangen, Germany). The following organs were included in this evaluation: the brain, salivary, and lacrimal glands, nasal mucosa, lung, liver, spleen, small and large intestine, and the kidneys. With regard to the large intestine, SUV was determined at the descending colon. Blood pool and background were evaluated in the descending aorta and the gluteal muscle, respectively. Tissue-to-background ratios (TiBR) were calculated by dividing the SUVmax of the organs by the SUVmean of the background (gluteal muscle).

prostate cancer lesions = experiment: [^89Zr]Zr-PSMA-617 PET/CT tumor lesion detection and uptake in biochemical recurrence; format: in vivo, human (patients)
Experimental: Three patients had undetermined findings on [^68Ga]Ga-PSMA-11 PET/CT with no definite assignment to pathological or physiological uptake, e.g., faintly accumulating or unusually located tracer uptake. The time interval between both, [^89Zr]Zr-PSMA-617 and [^68Ga]Ga-PSMA-11 PET/CT, was 31 ± 18 days (range 5–49 days), with no treatment performed in between. Prostate-specific antigen (PSA) serum level at time of imaging ranged from 0.43 to 1.92 ng/ml. All patients were initially treated with radical prostatectomy (RP). Initial Gleason score ranged from 7a to 9. Four patients underwent salvage treatments such as androgen-deprivation therapy (ADT), lymphadenectomy (LA) or radiation therapy (RT). Detailed patient characteristics including age, Gleason score, primary therapy, salvage therapies, time from initial diagnosis (ID) of prostate cancer, PSA and PSA doubling time (DT) are presented in Table 1. [^89Zr]Zr-PSMA-617 PET/CT imaging was performed on a compassionate use basis under the German Pharmaceutical Act §13 (2b). The medical indication for the examination and the labeling of the tracer were under the direct responsibility of the applying physician. Patients gave their written consent after being thoroughly informed about the general risks of both radiation exposure and application of a novel PET tracer including possible adverse effects of, e.g., therapeutic PSMA tracers. Furthermore, all patients agreed to the publication of the resulting data in accordance with the Declaration of Helsinki.
as §1
Three physicians with long-time experience in PSMA-targeted PET/CT (S.E., F.K., and F.R.) visually identified suspicious lesions taking into account all four imaging time points (1 h, 24 h, 48 h, and 72 h p.i.).

[2] = of the 11 lesions not visible at 1 h p.i.

O=C([O-])CN1CCN(CC(=O)[O-])CCN(CC(=O)NCC2CCC(C(=O)NC(Cc3ccc4ccccc4c3)C(=O)NCCCCC(NC(=O)NC(CCC(=O)O)C(=O)O)C(=O)O)CC2)CCN(CC(=O)[O-])CC1.[89Zr+4] (centres unmarked) [[^89Zr]Zr-PSMA-617]
SUVmax ([1]; colon, 1 h p.i.): 3.50 ± 2.21
SUVmax ([1]; colon, 72 h p.i.): 13.57 ± 5.00
SUVmax ([1]; kidneys, 1 h p.i.): 21.15 ± 12.31
SUVmax ([1]; kidneys, 72 h p.i.): 7.43 ± 1.56
Tissue-to-background ratio (TiBR) ([1]; salivary glands, kidneys, and colon at 72 h p.i., SUVmax organ / SUVmean gluteal muscle): ≥ 50
SUVmax ([1]; submandibular gland, 24 h p.i.): 17.30 ± 4.69
SUVmax ([1]; submandibular gland, 72 h p.i.): 6.29 ± 1.61
Patients whose undetermined [^68Ga]Ga-PSMA-11 findings were confirmed (prostate cancer lesions; 3 patients with undetermined findings in [^68Ga]Ga-PSMA-11 PET/CT): 2 of 3
Detectability of tumor lesions at late time points (prostate cancer lesions; 48 h p.i. and 72 h p.i.): All tumor lesions were detectable
Findings on [^89Zr]Zr-PSMA-617 PET/CT (prostate cancer lesions; Pt. no 1, PSA 1.92 ng/ml): Local recurrence
Findings on [^89Zr]Zr-PSMA-617 PET/CT (prostate cancer lesions; Pt. no 2, PSA 1.75 ng/ml): 3 × LNM (no right iliac LNM)
Findings on [^89Zr]Zr-PSMA-617 PET/CT (prostate cancer lesions; Pt. no 3, PSA 0.66 ng/ml): No suspicious findings
Findings on [^89Zr]Zr-PSMA-617 PET/CT (prostate cancer lesions; Pt. no 4, PSA 1.77 ng/ml): Peritoneal metastasis + 4 × LNM
Findings on [^89Zr]Zr-PSMA-617 PET/CT (prostate cancer lesions; Pt. no 5, PSA 0.63 ng/ml): 1 × LNM
Findings on [^89Zr]Zr-PSMA-617 PET/CT (prostate cancer lesions; Pt. no 6, PSA 0.43 ng/ml): Local recurrence (in seminal vesicle bed)
Findings on [^89Zr]Zr-PSMA-617 PET/CT (prostate cancer lesions; Pt. no 7, PSA 0.68 ng/ml): Local recurrence + 2 × LNM
Total number of lesions suggestive for prostate cancer (prostate cancer lesions; all 7 patients, range 1–5 per patient): 14 lesions
Tumor lesions identified at 1 h p.i. (also visible in [^68Ga]Ga-PSMA-11 PET/CT) (prostate cancer lesions; in 3 patients): Three
Patients with at least one prostate cancer lesion detected (prostate cancer lesions; of 7 patients with negative or undetermined [^68Ga]Ga-PSMA-11 PET/CT): 6 patients
Peritoneal metastases among identified lesions (prostate cancer lesions; of n = 14 lesions): 1 lesions
Tumor lesions not visible at 1 h p.i. but delineated at later time points (prostate cancer lesions; of n = 14 lesions): 11 lesions
Local recurrences among identified lesions (prostate cancer lesions; of n = 14 lesions, in 3 patients): 3 lesions
Lymph node metastases among identified lesions (prostate cancer lesions; of n = 14 lesions, in 4 patients): 10 lesions
Tumor lesions first visible at 24 h p.i. (prostate cancer lesions; [2]): 9 lesions
Tumor lesions first visible at 48 h p.i. (prostate cancer lesions; [2]): 2 lesions
SUVmax of tumor lesion (prostate cancer lesions; patient no. 1, focal uptake in the prostate bed (local recurrence), 48 h p.i.): 3.68
SUVmax of tumor lesion (prostate cancer lesions; patient no. 4, peritoneal lesion (peritoneal metastasis), 48 h p.i.): 2.87
SUVmax of tumor lesion (prostate cancer lesions; patient no. 6, local recurrence in left seminal vesicle bed, 1 h p.i.): 7.04
SUVmax of tumor lesion (prostate cancer lesions; patient no. 6, local recurrence in left seminal vesicle bed, 24 h p.i.): 21.27
SUVmax of tumor lesion (prostate cancer lesions; patient no. 6, local recurrence in left seminal vesicle bed, 48 h p.i.): 21.09
SUVmax of tumor lesion (prostate cancer lesions; patient no. 6, local recurrence in left seminal vesicle bed, 72 h p.i.): 19.19
SUVmax of tumor lesion (prostate cancer lesions; patient no. 7, pelvic lymph node metastasis, 48 h p.i.): 8.06
